Assay results as given in patent publication US20240216387A1, “COMPOSITION FOR PREVENTING OR TREATING MUSCULAR DISEASE, COMPRISING OXICAM-BASED COMPOUND” (ANIMUSCURE INC., priority 2021, published 2024).

Assays:
C2Cl2 cells = assay: Myoblast differentiation by meloxicam concentration (MHC immunofluorescence and Western blot); assay type: cell-based, mice
Experimental: The C2Cl2 cells were cultured in a general cell culture medium and a differentiation medium, respectively. DMEM supplemented with 10% fetal bovine serum was used as a normal cell culture medium (i.e., a growth medium (GM)), and DMEM containing 2% horse serum was used as a differentiation medium (DM). […] After differentiation, the cells were observed under a microscope, and the cells were disrupted and subjected to Western blot analysis using myogenin and MHC antibodies, which are differentiation markers. The C2Cl2 cells were washed with 1×PBS, fixed with 4% paraformaldehyde at room temperature, and then allowed to react at room temperature after adding a permeabilization buffer. The reaction was performed with PBST (blocking buffer) containing 5% goat serum and PBS containing 0.05% Tween 20 to inhibit non-specific antibody binding. After adding a primary antibody against myosin heavy chain (MHC), the resulting mixture was allowed to react at room temperature. A secondary antibody diluted 1:5000 in a blocking buffer was added and allowed to react at room temperature, and after applying a mounting solution (40% glycerol in DW) and fixing, images were taken under a fluorescence microscope to analyze the results.

human muscle stem cells = assay: Human muscle stem cell differentiation (MHC immunostaining, myotube diameter); assay type: cell-based; conditions: muscle stem cells from subject, meloxicam 1 μM, 4 days
Experimental: In addition, human muscle stem […] human skeletal muscle cells (Standard Donors), Cat NO: SK-1111) isolated from the rectus abdominis […] were purchased from MyoSite and used. Human muscle stem […] human skeletal muscle cells (Standard Donors), Cat NO: SK-1111) isolated from the rectus abdominis […] were purchased from MyoSite and used. Human muscle stem cells were seeded in a cell culture medium and cultured for 24 hours. […] The degree of differentiation into muscle fibers was measured through MHC immunostaining, which is a muscle fiber marker. Differentiation was analyzed by muscle fiber diameter.

24-month-old mice = assay: Muscle mass, muscle type and motor performance in aging mice upon long-term administration; assay type: in vivo
relatively young mice = assay: Grip strength and motor performance in relatively young mice (FIG. 15); assay type: in vivo
Experimental: On day 21 after inducing CTX-injury, a grip strength test for measuring the muscle strength of the meloxicam-administered group and the control group and an experiment for confirming motor performance were conducted. The grip strength test was performed by using a mouse grip strength tester manufactured by BIOSEB.

4-month-old normal mice = assay: Body weight, intake, grip strength, treadmill test and muscle mass in 4-month-old normal mice upon long-term administration; assay type: in vivo; conditions: meloxicam for 2 months
Experimental: In the treadmill test, measurement was performed by using a treadmill device for mice manufactured by Columbus Instruments. Measurements started at a 10% slope and 8 m/min, which was increased 1 m/min every 2 minutes, and continued until the mouse became tired.

Cc1cnc(NC(=O)C2=C(O)c3ccccc3S(=O)(=O)N2C)s1 [meloxicam]
MHC expression level (Western blot) (C2Cl2 cells; by meloxicam concentration (1-10,000 nM), FIG. 3): increased
MHC observed in myoblasts (fluorescence microscope) (C2Cl2 cells; high concentration of meloxicam (1-10,000 nM tested), differentiation for 3 days, FIG. 2): clearly observed
myotube diameter (human muscle stem cells; FIG. 4): increased
MHC expression (human muscle stem cells; FIG. 5): increased
myotube diameter (human muscle stem cells; FIG. 5): increased
effect of increasing motor performance (24-month-old mice; 7-month-old mice): confirmed
muscle mass in the hindlimb muscles and EDL muscle (24-month-old mice; 24-month-old mice, meloxicam for 4 months, FIG. 12): increased
motor performance increase (rotarod apparatus) compared to the control group (24-month-old mice; aged mice, FIG. 14): more than 50%
motor performance increase (relatively young mice): up to 72.3%
muscle strength increase (grip strength test) compared to the control group (relatively young mice; day 21 after inducing CTX-injury as printed): about 21.9%
body weight change compared with the non-administration group (4-month-old normal mice; FIG. 16A): no significant change
change in intake (4-month-old normal mice; FIG. 16B): no change
muscle strength (grip strength test) (4-month-old normal mice; FIG. 17A): improved
exercise duration (treadmill test) (4-month-old normal mice; compared to the non-administration group, FIG. 17A): improved
